In paper PMC10510102, “Efficient Ligand Discovery Using Sulfur(VI) Fluoride Reactive Fragments” (ACS Chemical Biology, 2023):

Key:
BCL6 BTB/POZ domain = BCL6 BTB/POZ domain (Homo sapiens, UniProt P41182, C67R/C84N/C8Q); assay: Displacement study with GSK137, intact protein LC-MS; assay type: binding; parameters: hBCL6-Flag-6H-Avi 3Cmut (5–129) produced as part of the GSK/GenScript collaboration; Flag (C); 6H (His6) (C); Avi (C); details: for Modification (GSK137 treatment) / Modification (DMSO-d6 treatment): 1 μM protein, 50 μM SF, 20 °C, 24 h, average of duplicate; for Modification (GSK137 treatment): 50 μM GSK137; for Displacement Ratio: DModification/Modification(DMSO-d6 treatment); for Displacement: attenuation of covalent modification by GSK137; for DModification: difference DMSO-d6 vs GSK137 treatment
From the text: With additional hits identified from the iterative screen, we sought to obtain further structural and biophysical information to better understand how these reactive fragments bind to BCL6. A total of eight SF hits were resynthesized and purified: the four from the original screen (2f–i) and four from the iterative screen (2p, 2q, 2s, and 2t). […]
8. BCL6 – Further investigations into hits by structural and biophysical studies
8.1. Displacement study with GSK137
The (resynthesized and purified) SF hits (2f–i, 2p, 2q, 2s, and 2t) were plated into a Greiner 384 white low volume plate from a 10 mM source in DMSO, or DMSO-d 6 only as a control. GSK137 (11) was also added from a 10 mM source in DMSO. Purified BCL6 diluted from original stock into a buffer made up of HEPES (pH 7.5, 25 mM) and NaCl (50 mM) in distilled MS-grade water (15 µL per well) was subsequently added across the plate. Final concentrations: 1 µM protein; 50 µM SF; 50 µM GSK137. The plate was sealed, centrifuged (1 min, 1000 rpm), incubated at 20 °C for 24 h, and subsequently analyzed by intact protein LC-MS. This was performed in duplicate and average covalent modification yields were used for analysis.
Table S8. Quantitative output from intact LC-MS analysis of BCL6 BTB/POZ domain reacted with SFs after incubation of DMSO-d 6 or GSK137. Extent of displacement measured as (DModification/Modification(DMSO-d 6 treatment)). […]

BCL6 = target: T1, BCL6 (Homo sapiens, UniProt P41182, C67R/C84N/C8Q); assay: Identification of site(s) of covalent modification by tandem MS; details: 2 μM BCL6, 100 μM SF, 4 °C, 24 h; trypsin digest LC-MS/MS
T1 construct: hBCL6-Flag-6H-Avi 3Cmut (5–129) produced as part of the GSK/GenScript collaboration; Flag (C); 6H (His6) (C); Avi (C)
Experimental: The top hits from the SF screen with BCL6 represented two distinct chemotypes: meta-substituted benzamides (2f and 2g) and azetidine aryl ethers (2h and 2i). These were resynthesized and purified for follow-up studies. […] Tyr57 has previously been targeted by a BCL6 inhibitor (14, TMX-2164); however, the targeting of His115 is a novel modification; these residues are located on opposite sides of the binding site of previously reported BCL6 inhibitors (11–14) (see Figure 5b).
7. BCL6 – site of binding studies and iterative screen
7.1. Identification of the site(s) of covalent modification by tandem MS (BCL6)
The (resynthesized and purified) SF hits (2f–i) were plated into a Greiner 384 PP F-bottom plate from a 10 mM source in DMSO. Purified BCL6 diluted from original stock into a buffer made up of HEPES (pH 7.5, 25 mM) and NaCl (50 mM) in distilled MS-grade water (50 µL per well) was subsequently added across the plate. Final concentrations: 2 µM protein; 100 µM SF. The plate was sealed, centrifuged (1 min, 1000 rpm), incubated at 4 °C for 24 h, and 15 µL aliquots were subsequently removed and analyzed by intact protein LC-MS.
The remaining samples (1 μg) were separated by SDS-PAGE to remove excess unbound compound. Gels were stained with colloidal Comassie InstantBlue and bands corresponding to BCL6 were excised, reduced with 10 mM TCEP (65 °C, 30 mins), and alkylated with 10 mM iodoacetamide (r.t., 30 mins, dark). Samples were digested with trypsin (Promega) 1:10 E:S (37 °C, 16 h) in 100 mM ammonium bicarbonate. After removal of the supernatant, peptides were extracted using acetonitrile. Combined supernatants were concentrated in a SpeedVac centrifuge and acidified (0.1% formic acid, 0.05% trifluoroacetic acid) prior to injection into the LC-MS/MS system.
Digested samples were injected on an Easy-nLC 1200 UHPLC system (Thermo Scientific). The nanoLC was interfaced to an Orbitrap Fusion Lumos Mass Spectrometer (Thermo Scientific). Tryptic peptides were loaded on a 2 cm × 75 µm Acclaim PepMap 100 C18 trapping column (Thermo Scientific) and separated on a 25 cm × 75 μm, 2 µm particles, PepMap C18, 2 μm particle column (Thermo Scientific) using a 50 min gradient of 2–38% acetonitrile, 0.2% formic acid and a flow of 300 nL/min. LC-MS/MS based peptide sequencing was performed by data dependent analysis (DDA). Full MS 350–1600 Da at 120,000 resolution, MS AGC target 1e6, MS Maximum IT 50 ms, followed by MS/MS using a 3 sec. cycle time, stepped collision energy mode at 25, 29 and 32 CE%, Isolation window 1.6 m/z, fixed first mass 145 m/z, 15,000 orbitrap resolution, MS/MS AGC target 1e5 and MS/MS Maximum IT 200 ms. Alternatively, samples were analyzed by Parallel Reaction Monitoring (PRM) targeting precursor ions relative to the modified peptides. […]

| SMILES | Modification (GSK137 treatment) (BCL6 BTB/POZ domain) [%] | Modification (DMSO-d6 treatment) (BCL6 BTB/POZ domain) [%] | Displacement Ratio (BCL6 BTB/POZ domain) | Displacement (BCL6 BTB/POZ domain) [%] | DModification (BCL6 BTB/POZ domain) [%] | site of covalent modification (BCL6) |
| --- | --- | --- | --- | --- | --- | --- |
| CN(C)C(=O)Nc1cccc(CNC(=O)Cc2ccc(S(=O)(=O)F)cc2)c1 [2f] | 3.8 | 17.6 | 0.78 | 78 | 13.8 | Tyr57 |
| CC(=O)Nc1cccc(CNC(=O)Cc2ccc(S(=O)(=O)F)cc2)c1 [2g] | 4.8 | 25.0 | 0.81 | 81 | 20.2 | Tyr57 |
| O=C(Cc1ccc(S(=O)(=O)F)cc1)N1CC(Oc2ccc(F)c(F)c2)C1 [2h] | 1.6 | 10.3 | 0.84 | 84 | 8.7 | His115 |
| NC(=O)c1ccccc1OC1CN(C(=O)Cc2ccc(S(=O)(=O)F)cc2)C1 [2i] | 1.6 | 19.7 | 0.92 | 92 | 18.1 | His115 |
